What all share (test): NCI-60 cell line screen, 48 h
Assay [1] concerns DU-145 prostate.
For assay [2], the system named is HL-60(TB) leukemia.
Assay [3] has as its system KM12 colon.
The test system of assay [4] is M14 melanoma.
Assay [5] relates to NCI-H460 lung.
Assay [6] has as its system OVCAR-8 ovarian.
Assay [7] relates to SF-268 CNS.
In assay [8] the test system is SF-539 CNS.
Assay [9] has as its system UO-31 renal.
For assay [10], the system named is HCC-2998 colon.

Results on 21 compounds are retold here after PubChem BioAssay (NCI).

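A five-concentration, 48-hour dose response in 96-well plates underlies each endpoint, interpolated linearly between surrounding concentrations. Abbreviation: GI50, concentration required for 50% inhibition of growth. The concentration for full growth arrest is given as TGI.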

As to `c1cncc(CNCc2cccnc2)c1`, the TGI in [1], in [2], in [3], in [4], in assay [5] and in assay [6] was greater than 100 µM in each case. The TGI in assay [7], in [8] and in assay [9] was greater than 100 µM in each case.
As for `CC1=Cc2ccc(C)cc2C(=O)C1=O`, the TGI in [1] was 35.3 µM; in assay [10], 30.8 µM; in assay [2] it was 4.13 µM; in [3] it was 34.5 µM; in [4] it was 10.5 µM; in assay [5], 41 µM. For the same compound, the TGI in assay [6] is greater than 73.8 µM; in assay [7] it was 27.5 µM; in [8], 14.9 µM; in assay [9] it was 3.04 µM.
Regarding `CN(C)CCSS(=O)(=O)O`, the TGI is greater than 100 µM in [1]; greater than 100 µM in assay [2]; greater than 100 µM in assay [3]; greater than 100 µM in assay [4]; 34.7 µM in assay [5]; greater than 100 µM in assay [6]. The TGI in assay [7], in assay [8] and in [9] was greater than 100 µM in each case.
Consider `C=CC(=O)Nc1cc(N2CCN(CC)CC2)ccc1Nc1cc(N(C)C(=O)Nc2c(Cl)c(OC)cc(OC)c2Cl)ncn1`, for which the GI50 in assay [1] is 4.27 µM; in assay [10], 2.49 µM; in assay [2] it was 4.91 µM; in assay [3], 3.09 µM; in [4], 4.85 µM; in [5] it was 7.67 µM. For the same compound, the GI50 was 4.38 µM in assay [6], 5.53 µM in assay [7], 3.53 µM in [8] and 8.53 µM in [9]. Moreover, the TGI in assay [1] was 16.4 µM; in assay [10] it was 6.3 µM; in [2] it was 25.3 µM; in assay [3], 10.3 µM; in [4], 18.7 µM; in [5] it was 24.7 µM. Further, the TGI came to 18.1 µM in [6], 27.7 µM in assay [7], 15.2 µM in assay [8] and 22.2 µM in assay [9].
Turning to `S=c1nc(N/N=C/c2ccco2)c2cn[nH]c2[nH]1`, the GI50 was 61.8 µM in [1]; 22.4 µM in assay [10]; 77.1 µM in assay [2]; 24.7 µM in [3]; greater than 100 µM in assay [4]; 17.9 µM in assay [5]. The GI50 was 69.2 µM in assay [6], 48.4 µM in assay [7], 43.3 µM in [8] and 98.1 µM in assay [9]. In addition, the TGI was greater than 100 µM in assay [1]; 88.7 µM in assay [10]; greater than 100 µM in assay [2]; greater than 100 µM in assay [3]; greater than 100 µM in [4]; greater than 100 µM in assay [5]. Also, the TGI in assay [6], in assay [7], in assay [8] and in assay [9] was greater than 100 µM throughout.
In the case of `COC(=O)C1=C(C(=O)OC)C2(C)C=CC1O2` (stereo unspecified), the TGI in [1] is 31.8 µM; in [10] it was 29.8 µM; in assay [4] it was 32.5 µM; in assay [5] it was greater than 100 µM; in [6], 31.7 µM; in assay [7], greater than 100 µM. The values for the TGI in assay [8] and in assay [9] were 33 µM and 17.6 µM, respectively.
Turning to `COc1cc(C)c(C2NC(=O)c3ccccc3N2)cc1C` (stereo unspecified), the TGI in assay [1] is 11.6 µM; in [10], 25.9 µM; in assay [2], 0.396 µM; in [3] it was greater than 100 µM; in assay [4], 8.54 µM; in assay [5] it was 26.5 µM. In addition, the TGI in [6] is greater than 66.5 µM; in assay [7], greater than 100 µM; in assay [8] it was 0.734 µM; in [9], greater than 100 µM.
On to `O=C(NCCc1ccccn1)OCc1nc2nc(Cl)nc(N3CCOCC3)c2[nH]1`, for which the GI50 was 1.57 µM in assay [1]; 1.74 µM in assay [10]; 1.83 µM in assay [2]; 2.63 µM in assay [3]; 3.12 µM in assay [5]; 3.17 µM in [6]. Moreover, the GI50 was 1.69 µM in [7], 1.5 µM in [8] and 1.28 µM in assay [9]. Besides, the TGI in [1] amounted to 3.04 µM; in [10], 3.33 µM; in assay [2], 4.96 µM; in assay [3], 10.8 µM; in assay [5] it was 11.1 µM; in assay [6], 15.4 µM. Further, the TGI came out at 3.8 µM in [7], 2.85 µM in [8] and 2.55 µM in [9].
On to `Cc1c(-c2ccnc(N)n2)c2c(n1Cc1ccccc1)C(=O)c1ccccc1C2=O`, for which the GI50 in [1] is 9.82 µM; in assay [10] it was 12.9 µM; in assay [3] it was 8.82 µM; in assay [4] it was 16.2 µM; in [5], 6.42 µM; in assay [9], 3.28 µM. The TGI was 41.2 µM in assay [1]; 35.8 µM in [10]; 30.4 µM in assay [3]; greater than 100 µM in [4]; 26.5 µM in assay [5]; 21.8 µM in [9].
Take `O=C([O][Sn]([O]C(=O)c1ccccn1)([c]1ccccc1)[c]1ccccc1)c1ccccn1`: the GI50 was 1.93 µM in assay [1]; 13.1 µM in assay [10]; 13.2 µM in assay [3]; 4.56 µM in [4]; 12.2 µM in assay [5]; 11.3 µM in assay [6]. Besides, the GI50 in assay [7] is 2.76 µM; in [8], 6.65 µM; in assay [9] it was 2.05 µM. The TGI in assay [1] was found to be 4.19 µM; in assay [10], 26 µM; in assay [3] it was 25.9 µM; in assay [4] it was 15.8 µM; in assay [5], 26.2 µM; in assay [6], 24 µM. Moreover, the TGI came to 9.09 µM in assay [7], 19.7 µM in assay [8] and 4.66 µM in assay [9].
For the compound `Cc1nc(Nc2cccnc2)sc1C(=O)/C=C/c1ccc(Cl)cc1`, the GI50 is 3.57 µM in assay [1]; 3.06 µM in [10]; 1.98 µM in [3]; 3.13 µM in assay [4]; 3.5 µM in assay [5]; 3.84 µM in assay [6]. Besides, the GI50 in assay [7] is 4.34 µM; in [8] it was 2.03 µM; in assay [9], 1.81 µM. Also, the TGI in assay [1] is 19.8 µM; in [10], 10.5 µM; in assay [3] it was 4.19 µM; in assay [4], 19.5 µM; in assay [5] it was 13.8 µM; in assay [6], greater than 100 µM. The TGI in assay [7] is greater than 100 µM; in assay [8], 5.26 µM; in assay [9], 4.61 µM.
In the case of `CC(C)(C)OC(=O)NCCCn1c2c(c3ccccc3c1=O)C(=O)c1ccccc1-2`, the GI50 was 74.8 µM in assay [1]; greater than 100 µM in [2]; 67 µM in [3]; greater than 100 µM in assay [4]; 33.9 µM in assay [5]; 13.3 µM in assay [6]. Besides, the values for the GI50 in assay [7], in [8] and in [9] were 4.56 µM, 10.3 µM and 71.5 µM, respectively. Moreover, the TGI in [1] is greater than 100 µM; in assay [2] it was greater than 100 µM; in assay [3] it was greater than 100 µM; in [4], greater than 100 µM; in [5] it was greater than 100 µM; in assay [6] it was 58.2 µM. The figures for the TGI in assay [7], in [8] and in assay [9] were 17.7 µM, 29.3 µM and greater than 100 µM, respectively.
Consider `Cc1cc(N=C2C=C(Br)C(=O)C(Br)=C2)cc(CN(CC(=O)O)CC(=O)O)c1O`, for which the TGI in assay [1], in assay [10], in assay [2], in [4], in [5] and in [6] was greater than 100 µM throughout. The TGI in assay [7], in assay [8] and in assay [9] was greater than 100 µM in each case.
Regarding `C1CC2CN(CCCN3CCOCC3)C(C1)O2` (stereo unspecified), the TGI in [1], in [2], in assay [3], in [4], in assay [5] and in assay [6] was greater than 100 µM each time. Also, the TGI in assay [7], in assay [8] and in assay [9] was greater than 100 µM in each case.
For `NN=C(CC(O)(C(F)(F)Cl)C(F)(F)Cl)CC(O)(C(F)(F)Cl)C(F)(F)Cl`, the TGI in assay [1], in assay [10], in assay [2], in assay [3], in [4] and in assay [5] was greater than 10 µM each time. The TGI in [6], in [7] and in assay [8] was greater than 10 µM throughout.
Regarding `CN(C)c1nc2ccccc2c2c1c1c(n2Cc2ccccc2)-c2ccccc2C1=O`, the GI50 in assay [1] was greater than 100 µM; in assay [2], 91.6 µM; in [3], greater than 100 µM; in assay [4] it was greater than 100 µM; in [5], greater than 100 µM; in [6] it was greater than 100 µM. Also, the GI50 in [7], in assay [8] and in assay [9] was greater than 100 µM in each case. Besides, the TGI in assay [1], in assay [2], in [3], in assay [4], in assay [5] and in assay [6] was greater than 100 µM in each case. The TGI in [7], in assay [8] and in [9] was greater than 100 µM throughout.
For `O=c1[nH]c2ccccc2n1CCCN1CCC(n2c(=O)[nH]c3cc(Cl)ccc32)CC1`, the TGI in assay [1] turned out to be 39.2 µM; in assay [10], 30.4 µM; in [2], 37.3 µM; in assay [3], 30.6 µM; in assay [4] it was 29.9 µM; in [5] it was 32.2 µM. Besides, the TGI in assay [6] worked out at 38.6 µM; in assay [9] it was 20.3 µM.
Turning to `COc1cc(NC(=O)CCSc2nc3ccc(C)cc3c(=O)n2Cc2ccccc2)cc(OC)c1OC`, the GI50 is 66 µM in assay [1]; greater than 100 µM in assay [10]; greater than 100 µM in assay [3]; 24.4 µM in assay [4]; 5.31 µM in assay [5]; 5.01 µM in assay [6]. The GI50 in [7] was 4.22 µM; in assay [8], 2.5 µM; in assay [9], 11.6 µM. Besides, the TGI in assay [1], in assay [10], in assay [3], in assay [4], in assay [5] and in assay [6] was greater than 100 µM in each case. Further, the TGI is 49.6 µM in assay [7], 7.26 µM in [8] and greater than 100 µM in [9].
In the case of `CCOc1c(N=Nc2ccccc2Cl)c(-c2ccccc2)nn1C(=S)S`, the TGI in assay [1], in assay [2], in [3], in assay [4], in [5] and in [6] was greater than 100 µM throughout. Besides, the TGI is greater than 100 µM in [7], 50.4 µM in assay [8] and greater than 100 µM in assay [9].
As to `COc1cc2c(cc1OCCCCCCN1CCN(CC(=O)Nc3ccc(Cl)cc3C(=O)c3ccccc3Cl)CC1)N=CC1CCCN1C2=O` (stereo unspecified), the GI50 in assay [1] was 0.254 µM; in assay [10] it was 0.173 µM; in [2] it was 0.244 µM; in assay [5], 0.18 µM; in [6] it was 0.201 µM; in assay [8] it was 0.289 µM. Further, the GI50 in assay [9] is 0.242 µM. In addition, the TGI in assay [1] amounted to 0.715 µM; in assay [10], 0.314 µM; in [5], 0.334 µM; in assay [6], 0.607 µM; in assay [8], 0.74 µM; in [9], 0.681 µM.
As for `C1CC[N-]CC1.CC(=N\O)/C(C)=N/O.CC(=N\O)/C(C)=N/O.OC1[CH-]CCCC1.[Co+2]`, the GI50 in assay [1] is 69.1 µM; in [2], 21.7 µM; in [3], greater than 100 µM; in [4] it was 52.8 µM; in [5], 30.8 µM; in assay [6] it was 28.9 µM. Moreover, the GI50 was 44.8 µM in assay [7], 25.5 µM in assay [8] and greater than 100 µM in assay [9]. Besides, the TGI was greater than 100 µM in [1]; 72.5 µM in [2]; greater than 100 µM in assay [3]; greater than 100 µM in assay [4]; greater than 100 µM in assay [5]; greater than 100 µM in [6]. For the same compound, the TGI is greater than 100 µM in assay [7], 71.1 µM in assay [8] and greater than 100 µM in assay [9].
